Source: BindingDB's records for doi:10.7270/Q2P26WJQ (The Scripps Research Institute Molecular Screening Center, 2009)

The compounds below were run against Transitional endoplasmic reticulum ATPase (Homo sapiens, UniProt P55072) (assay: p97 ATPase inhibitors, dose response, biochemical (AID 1534)).
Sequence of Transitional endoplasmic reticulum ATPase (P55072 whole entry): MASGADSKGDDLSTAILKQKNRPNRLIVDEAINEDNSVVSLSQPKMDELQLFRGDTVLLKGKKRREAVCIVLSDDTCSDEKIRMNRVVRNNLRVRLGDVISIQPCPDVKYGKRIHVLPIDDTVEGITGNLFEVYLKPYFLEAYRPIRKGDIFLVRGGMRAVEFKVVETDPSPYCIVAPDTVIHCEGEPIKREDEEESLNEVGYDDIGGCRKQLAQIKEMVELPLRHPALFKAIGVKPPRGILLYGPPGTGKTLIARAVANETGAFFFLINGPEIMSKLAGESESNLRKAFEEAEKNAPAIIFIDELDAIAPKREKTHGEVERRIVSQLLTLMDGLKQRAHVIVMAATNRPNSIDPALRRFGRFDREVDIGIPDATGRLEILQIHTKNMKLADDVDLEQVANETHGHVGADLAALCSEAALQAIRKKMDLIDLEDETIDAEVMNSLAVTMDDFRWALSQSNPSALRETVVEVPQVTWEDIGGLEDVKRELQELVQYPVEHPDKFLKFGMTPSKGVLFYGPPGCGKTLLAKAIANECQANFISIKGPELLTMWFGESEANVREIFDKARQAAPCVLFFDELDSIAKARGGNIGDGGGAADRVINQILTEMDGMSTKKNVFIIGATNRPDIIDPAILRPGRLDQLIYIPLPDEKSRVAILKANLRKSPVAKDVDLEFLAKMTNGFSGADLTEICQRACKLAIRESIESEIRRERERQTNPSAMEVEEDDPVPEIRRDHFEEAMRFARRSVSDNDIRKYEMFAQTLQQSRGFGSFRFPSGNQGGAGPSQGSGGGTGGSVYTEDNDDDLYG

IC50 [µM] | Structure (SMILES)
> 50 | Cc1ccc(C)c(SCC(=O)OCC(=O)C(C#N)c2nc3ccccc3[nH]2)c1 (configuration not stated) [MLS000392255]
> 50 | COc1ccc(CN=Nc2nnc(-c3ccccc3)c(=O)[nH]2)cc1 [4-methoxybenzaldehyde (5-oxo-6-phenyl-4,5-dihydro-1,2,4-triazin-3-yl)hydrazone]
> 50 | On1[o+]nc2c1CCc1nc(-c3ccccc3)[n-]c1-2 [3-oxidanidyl-7-phenyl-4,5-dihydro-1H-imidazo[4,5-g][2,1,3]benzoxadiazol-3-ium]
> 50 | NS(=O)(=O)c1ccc(N=NCc2ccc(O)c(O)c2O)c([N+](=O)[O-])c1 [4-[[(E)-(2,3-dihydroxy-4-oxo-1-cyclohexa-2,5-dienylidene)methyl]hydrazo]-3-nitrobenzenesulfonamide]
> 50 | Cc1ccc(SCC(=O)C(C#N)c2nc3ccccc3s2)cc1 (configuration not stated) [(2Z)-2-(3H-1,3-benzothiazol-2-ylidene)-3-keto-4-(p-tolylthio)butyronitrile]
36.5 | Oc1ccc(CN=Nc2ccnc3cc(Cl)ccc23)cc1O [(4Z)-4-[[2-(7-chloroquinolin-4-yl)hydrazinyl]methylidene]-2-hydroxycyclohexa-2,5-dien-1-one]

Structure (SMILES) | IC50 [µM]
CN(C)[C@@H]1C(=O)C(C(N)=O)C(=O)[C@@]2(O)C(=O)C3C(=O)c4c(O)cccc4[C@@](C)(O)[C@H]3[C@H](O)[C@@H]12 (stereo partly drawn) [(2E,4S,4aR,5S,5aR,6S,12aS)-2-[azanyl(oxidanyl)methylidene]-4-(dimethylamino)-6-methyl-5,6,10,11,12a-pentakis(oxidanyl)-4,4a,5,5a-tetrahydrotetracene-1,3,12-trione] | > 50
